Assay [1] has as its system HCT116. The experiment in a line: AC50 cell viability (CellTiter-Glo); higher = less potent. Particulars: 48 h.
For assay [2], the system named is HCT116. The experiment in a line: efficacy (fitted maximal change in viability relative to DMSO control); higher = less cytotoxic (negative = loss of viability). Particulars: 48 h.
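Wherever AC50 cell viability (CellTiter-Glo) is given: HCT116 colorectal carcinoma cells screened at five concentrations per compound, luminescent viability scaled between DMSO wells and empty wells on each plate, curves fitted per compound.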
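Wherever efficacy (fitted maximal change in viability relative to DMSO control) is given: Luminescence-based viability readout, five doses per compound, normalized against on-plate DMSO and empty-well controls, followed by dose-response curve fitting for every drug.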

`COc1cc(OC)c(/C=C/[S+](=O)([O-])Cc2ccc(OC)c(NCC(=O)[O-])c2)c(OC)c1` yielded an AC50 cell viability with HCT116 [1] of 0.0661 µM. For the same molecule, the efficacy with HCT116 [2] is -58.9%.

For `COc1cc2ncn(-c3cc(OCc4ccccc4C(F)(F)F)c(C(N)=O)s3)c2cc1OC`, in the assay on HCT116 [1], the AC50 cell viability was found to be 0.934 µM. For the same molecule, the efficacy in the assay with HCT116 [2] was -78.4%.

In turn, `COc1cc2ncnc(Nc3cccc(Br)c3)c2cc1OC` had an AC50 cell viability in the assay on HCT116 [1] of 20.9 µM. In addition, in the assay with HCT116 [2], the efficacy is -53%.

On to `COc1ccc(N(C(=O)Oc2c(C)cccc2C)c2ccnc(Nc3ccc(N4CCN(C)CC4)cc3)n2)c(OC)c1`, for which the AC50 cell viability with HCT116 [1] was 0.661 µM. Moreover, in the assay on HCT116 [2], the efficacy was -41%.

On to `COc1ccc2c(c1)[C@]1(C[C@H]1c1ccc3c(/C=C/c4ccc(CN5C[C@@H](C)O[C@@H](C)C5)cc4)n[nH]c3c1)C(=O)N2`, for which the AC50 cell viability in the assay with HCT116 [1] is 13.2 µM. Moreover, in the assay with HCT116 [2], the efficacy was -83.6%.

Molecule `COC1=CC=CC(=C1N)\C2=C\C(=O)C3=C(O2)C=CC=C3` had an AC50 cell viability with HCT116 [1] of 16.6 µM. In addition, the efficacy in the assay on HCT116 [2] is -52.9%.

Molecule `CO[C@@H](C)Cn1c(=O)n(C)c2cnc3ccc(-c4cncc(C(C)(C)O)c4)cc3c21` displayed an AC50 cell viability in the assay with HCT116 [1] of 1.05 µM. For the same molecule, in the assay on HCT116 [2], the efficacy is -82.3%.

In the assay with HCT116 [1], `C[C@@H]1CCNC(=O)c2cc3ccc(C(=O)Nc4nc5ccccc5n4CCCN(C)C)cc3n21` displayed an AC50 cell viability of 11.8 µM. The efficacy in the assay on HCT116 [2] is -92.3%.

`C[C@H](CN(C)C)Oc1nc(Nc2cc3cccc(Cl)c3cn2)cnc1C#N` came in with an AC50 cell viability in the assay with HCT116 [1] of 3.32 µM. The efficacy with HCT116 [2] was -31.2%.

For `C[C@H]1C[C@@H](n2c(Nc3ccc(OC(F)(F)F)cc3)nc3cc(CCC(=O)O)ccc32)CC(C)(C)C1`, the AC50 cell viability in the assay on HCT116 [1] amounted to 20.9 µM. In addition, in the assay with HCT116 [2], the efficacy is -65%.

Take `Cc1cc(C(=O)Nc2cc(Nc3ccc4c(/C=C/c5ccccn5)[nH]nc4c3)ccc2F)n(C)n1`: the AC50 cell viability in the assay with HCT116 [1] came out at 10.5 µM. Also, the efficacy in the assay with HCT116 [2] is -99.1%.

`Cn1ncc2cc(-c3cnc(N)c(Cl)c3N3CCC4(CCNC4=O)CC3)ccc21`: the AC50 cell viability in the assay on HCT116 [1] was 16.6 µM. In the assay with HCT116 [2], the efficacy is -46.1%.

Molecule `Cn1nccc1Nc1nccc(-c2cc3c(s2)C(C)(C)N(CCN2CCOCC2)C3=O)n1` had an AC50 cell viability with HCT116 [1] of 0.525 µM. The efficacy in the assay on HCT116 [2] is -57.4%.

For the molecule `Clc1cc(Cl)cc(CNc2ncncc2-c2ccc3c(c2)OCO3)c1`, the AC50 cell viability in the assay on HCT116 [1] came out at 13.2 µM. In addition, in the assay on HCT116 [2], the efficacy is -78.4%.

Take `N#Cc1ccc(Cn2cncc2CN2CCN(c3cccc(Cl)c3)C(=O)C2)cc1`: in the assay on HCT116 [1], the AC50 cell viability amounted to 0.332 µM. For the same molecule, the efficacy in the assay with HCT116 [2] is -46%.

In the assay on HCT116 [1], `O=C(Nc1cnccc1Cl)N1CCN(Cc2ccc3c(c2)OC(F)(F)O3)CC1` had an AC50 cell viability of 14.8 µM. For the same molecule, in the assay on HCT116 [2], the efficacy is -56.5%.

The molecule `NC(=O)c1ccc2nc(-c3ccc(C4(N)CCC4)cc3)c(-c3ccccc3)n2n1` displayed an AC50 cell viability in the assay on HCT116 [1] of 20.9 µM. Moreover, the efficacy with HCT116 [2] was -103%.

For `C=CC(=O)N1CCC[C@@H](n2nc(-c3ccc(Oc4ccccc4)cc3)c3c(N)ncnc32)C1`, in the assay on HCT116 [1], the AC50 cell viability is 16.6 µM. In the assay on HCT116 [2], the efficacy is -90.8%.

The molecule `NC(=O)c1cnc(N[C@@H]2CCCC[C@@H]2N)nc1Nc1cccc(-n2nccn2)c1` had an AC50 cell viability in the assay with HCT116 [1] of 10.5 µM. Moreover, the efficacy in the assay on HCT116 [2] was -90.7%.

For `O=C(Nc1ccc2[nH]nc(-c3ccncc3)c2c1)[C@@H]1CCN(CC(=O)N2CCN(c3ccc(-c4ncccn4)cc3)CC2)C1`, the AC50 cell viability in the assay on HCT116 [1] is 0.295 µM. Further, the efficacy in the assay on HCT116 [2] was -64.3%.

In the assay on HCT116 [1], `O=C(NC1CC1)c1cccc(-c2ccc3c(NC(=O)C4CC4)n[nH]c3c2)c1` returned an AC50 cell viability of 9.34 µM. Moreover, the efficacy in the assay with HCT116 [2] was -52.3%.

The molecule `Oc1ccc(C2CCN(c3ccnc4ccccc34)CC2)cc1O` showed an AC50 cell viability in the assay on HCT116 [1] of 11.8 µM. In addition, the efficacy in the assay with HCT116 [2] is -49%.

Turning to `OC1CCC(CC1)N2\C=N/C3=C(C2=N)C(=C([N]3CC4=CC=CC=C4)C5=CC=CC=C5)C6=CC=CC=C6` (stereo unspecified), the AC50 cell viability in the assay on HCT116 [1] was 2.95 µM. The efficacy in the assay with HCT116 [2] is -107%.

For the molecule `OC1CCC(Nc2ncc3nc(Nc4c(F)cc(F)cc4F)n([C@@H]4CCOC4)c3n2)CC1` (stereo partly specified), the AC50 cell viability in the assay on HCT116 [1] worked out at 18.6 µM. The efficacy with HCT116 [2] is -43.3%.

`O=C(NOCC(O)CO)c1cc(Br)c(F)c(F)c1Nc1ccc(I)cc1F` (stereo unspecified) had an AC50 cell viability with HCT116 [1] of 0.934 µM. Also, the efficacy with HCT116 [2] is -69.5%.

Molecule `O=C(N[C@H]1CCC[C@H](CO)C1)C1CCN(c2nc3cc(Cl)c(-c4ccc(Cl)cc4)cc3o2)CC1` returned an AC50 cell viability in the assay with HCT116 [1] of 23.5 µM. Further, the efficacy with HCT116 [2] is -83.2%.

In turn, `O=[N+]([O-])c1ccc(Nc2ccccc2-c2ccccc2)c2nonc12` registered an AC50 cell viability with HCT116 [1] of 16.6 µM. Besides, the efficacy in the assay on HCT116 [2] was -90.7%.

With `O=C1c2ccccc2-c2n[nH]c3cccc1c23`, the AC50 cell viability in the assay on HCT116 [1] is 13.2 µM. Besides, the efficacy in the assay with HCT116 [2] is -63.8%.

Source of the values: the supplement of paper PMC10290057.
